Among the data in ChEMBL document CHEMBL2157959, “Reactive metabolites of desipramine and clomipramine: The kinetics of formation and reactivity with DNA” (Bioorg Med Chem, 2012) are Drug metabolism, Activity and Km values, retold here.

A short description of series [1]: Drug metabolism in water assessed as formation of reactive intermediate during drug oxidation at 1 mM in the presence of HRP and H2O2 UV/vis spectrophotometry. Format: physicochemical. Conditions: buffer, 1000 µM; call rule not given here.
Series [2] is described as follows: Drug metabolism in water assessed as formation of 3-chloroiminodibenzyl in the presence of HRP and H2O2 UV/Vis spectrophotometry. Format: physicochemical. Conditions: buffer.
Series [3] can be described thus: Induction of DNA degradation in calf thymus DNA at 0.5 mM after 1 hr by agarose gel electrophoresis in presence of HRP and H2O2. The following applies: cattle, 500 µM.
Series [4] can be described thus: Induction of DNA degradation in calf thymus DNA at 2 mM after 2 hrs by PCI extraction-based spectrophotometric analysis in presence of HRP and H2O2. The following applies: cattle, 2000 µM.
Series [5] in a line: Drug metabolism in sorensen buffer assessed as formation of reactive intermediate during drug oxidation at 92 uM at pH 7.4 up to 24 mins in the presence of HRP and H2O2 by UV/vis spectrophotometry. The format is physicochemical. The following applies: pH 7.4, 0.4 h.
Series [6] is described as follows: Drug metabolism in sorensen buffer assessed as iminodibenzyl formation at pH 7.4 in the presence of HRP and H2O2 by GC/MS analysis. The format is physicochemical.
For series [7], the system named is HRP (horseradish peroxidase). The series can be described thus: Drug metabolism in sorensen buffer assessed as apparent Km for drug oxidation measured for 20 mins by Michaelis-Menten equation analysis in presence of HRP and H2O2. Format: physicochemical. Conditions: horseradish peroxidase (HRP) with H2O2 in Sorensen buffer.
The nature of series [8]: Drug metabolism in sorensen buffer assessed as formation of reactive intermediate during drug oxidation at 92 uM at pH 7.4 up to 24 mins in the presence of HRP by UV/vis spectrophotometry. The format is physicochemical. The following applies: pH 7.4, 0.4 h.
Series [9] can be described thus: Drug metabolism in sorensen buffer assessed as formation of reactive intermediate during drug oxidation at 92 uM at pH 7.4 up to 24 mins in the presence of H2O2 by UV/vis spectrophotometry. Conditions: pH 7.4, 0.4 h. The format is physicochemical.

Turning to `CN(C)CCCN1c2ccccc2CCc2ccc(Cl)cc21.Cl` [CLOMIPRAMINE HYDROCHLORIDE], the Drug metabolism result in [1] and in series [2] was “Active” throughout. Moreover, the Activity result in [3] and in [4] was “Toxic” throughout.
As for `CNCCCN1c2ccccc2CCc2ccccc21.Cl` [DESIPRAMINE HYDROCHLORIDE], the Drug metabolism entry in series [5] is listed as “Active”; in series [6], “Active”; in series [8] it was “Not Active”; in series [9], “Not Active”. In addition, in series [7], the Km – broadly, the substrate concentration at which the rate is half of its maximum – at 20 min came out at 4.4 mM. The Activity entry in series [3] and in series [4] was “Toxic” each time.
